These results are taken from EP0480258A2, “Use of substituted 2-mercapto-nicotinic acid derivatives for combat against endoparasites, novel substituted 2-mercaptonicotinir acid derivatives and processes for their preparation” (BAYER AG, priority 1990, dated 1992).

Molecules are shown by their SMILES.

The test system of one assay is Haemonchus contortus. Description: In vivo nematode test, Haemonchus contortus / sheep. To be noted: experimentally infected sheep (Schaf), treated after the prepatent period, pure active compound in gelatin capsules, oral, dose giving complete cessation of egg excretion in faeces, read-out: Dosis effectiva. The source says: Haemonchus contortus / Schaf
Experimentell mit Haemonchus contortus infizierte Schafe wurden nach Ablauf der Präpatenzzeit des Parasiten behandelt. Die Wirkstoffe wurden als reiner Wirkstoff in Gelatinekapseln oral appliziert.
Der Wirkungsgrad wird dadurch bestimmt, daß man die mit dem Kot ausgeschiedenen […] vor und nach der Behandlung quantitativ auszählt.
Ein völliges Sistieren der Eiausscheidung nach der Behandlung bedeutet, daß die Würmer abgetrieben wurden oder so geschädigt sind, daß sie keine Eier mehr produzeiren (Dosis effectiva).
Geprüfte Wirkstoffe und wirksame Dosierungen (Dosis effectiva) sind aus der nachfolgenden Tabelle ersichtlich: […]

Assay [1] has as its system Trichostrongylus colubriformis. Description: In vivo nematode test, Trichostrongylus colubriformis / sheep. To be noted: experimentally infected sheep (Schaf), treated after the prepatent period, pure active compound in gelatin capsules, oral, dose giving complete cessation of egg excretion in faeces, read-out: Dosis effectiva. The source says: Trichostrongylus colubriformis / Schaf
Experimentell mit Trichostrongylus colubriformis infizierte Schafe wurden nach Ablauf der Präpatenzzeit des Parasiten behandelt. Die Wirkstoffe wurden als reiner Wirkstoff in Gelatinekapseln oral appliziert.
Der Wirkungsgrad wird dadurch bestimmt, daß man die mit dem Kot ausgeschiedenen Wurmeier vor und nach der Behandlung quantitativ auszählt.
Ein völliges Sistieren der Eiausscheidung nach der Behandlung bedeutet, daß die Würmer abgetrieben wurden oder so geschädigt sind, daß sie keine Eier mehr produzieren (Dosis effectiva).
Geprüfte Wirkstoffe und wirksame Dosierungen (Dosis effectiva) sind aus der nachfolgenden Tabelle ersichtlich.

Regarding `CSc1ncccc1C(=O)Nc1ccccc1` [Beispiel 1], the minimal effective dose with Haemonchus contortus is 10 mg/kg. Take `CCCSc1ncccc1C(=O)Nc1ccccc1` [Beispiel 2]: the minimal effective dose (with Haemonchus contortus; in assay [1]) was 10 mg/kg in each case. As to `C=CCSc1ncccc1C(=O)Nc1ccccc1` [Beispiel 3], in assay [1], the minimal effective dose turned out to be 10 mg/kg. As to `CCCSc1ncccc1C(=O)Nc1ccccc1Cl` [Beispiel 6], the minimal effective dose with Haemonchus contortus was 5 mg/kg. With `CSc1ncccc1C(=O)Nc1ccc(Cl)cc1` [Beispiel 7], the results for the minimal effective dose (with Haemonchus contortus; in assay [1]) were 10 mg/kg and 5 mg/kg, respectively. Regarding `CCCSc1ncccc1C(=O)Nc1ccc(Cl)cc1` [Beispiel 9], the minimal effective dose in the assay on Haemonchus contortus worked out at 10 mg/kg.

As for `CCSc1ncccc1C(=O)Nc1ccc(Cl)cc1` [Beispiel 13], the minimal effective dose in assay [1] worked out at 10 mg/kg. As to `CCSc1ncccc1C(=O)Nc1ccccc1` [Beispiel 24], the minimal effective dose in the assay on Haemonchus contortus was 10 mg/kg.

Consider `CCCSc1ncccc1C(=O)Nc1ccc(SC(F)(F)F)cc1` [Beispiel 29], for which the minimal effective dose (in the assay with Haemonchus contortus; in assay [1]) was 10 mg/kg throughout. On to `CSc1ncccc1C(=O)Nc1ccc(Sc2ccc(Cl)cc2)cc1C(F)(F)F` [Beispiel 87], for which the minimal effective dose in assay [1] was determined as 10 mg/kg.
